Key:
Chlorella sp. ATCC 7516 = test: Algal efficacy testing of dry paint films (modified ASTM 5589, 6-well plates); assay type: cell-based; conditions: 3 weeks; for % inhibition: at the listed total conc, versus blank sample; for Total conc (lowest concentration passing, pass level ≧75% inhibition): total biocide in acrylic/silicone paint, dry film on filter paper
Description: (§1) Slurries containing 33% antimicrobial active ingredient (chlorotoluron) and 45% antimicrobial ingredient terbutryn were post added to a white, acrylic/silicone based outdoor paint free of biocides to give a total active ingredient concentration of 10000 and 1000 ppm respectively. These paints were then diluted with an antimicrobial free acrylic/silicone based paint and mixed to prepare targeted concentrations of antimicrobial compounds for the testing. The total biocides concentrations tested were 125, 250, 500, 1000, 2000 and 5000 ppm. After biocides addition or dilution, the paints were mixed 90 seconds with the horse power shaker (AXEL 75M3372/Agitateur SO-10MI) until uniformity was achieved. Paints containing different antimicrobial compounds at the same levels were mixed together in order to obtain the desired ratio of antimicrobial compounds. After one day, the paints were applied to Schleicher & Schuell filter paper at 280 μm wet film thickness and dried for 3 days at room temperature avoiding direct exposure to sunlight. Square discs (1.6 cm×1.6 cm) were cut out from each panel and were used as the substrate for algal efficacy tests. This sample size allowed for an agar border when the sample disc was placed into the well of the test plate.
(§2) Algal efficacy was tested according to modified ASTM 5589 which is a standard accelerated test method for determining resistance of various coatings (including paints) to algal defacement. To accommodate for high-throughput screening, this method was scaled down from petri dishes to 6-well plates. Bold Modified Basal Freshwater Nutrient Solution was used as growth medium. A single coated filter paper coupon was placed with a pair of sterile forceps at the center of the agar plug (on top) with the painted surface facing upwards. Algal inoculums were prepared by mixing equal concentrations (1×10^6 cfu/ml) and equal volumes of exponentially growing algae cultures.
(§3) Each well that contains a tested coupon was inoculated with 1750 μl of algal suspensions (1×10^6 cfu/ml) making sure that the whole surface (paint film as well as the agar surrounding it) was evenly covered. The plates were incubated at room temp (21° C.-25° C.) with cyclic exposure to light and dark phases, for a period of three weeks. The total area inhibited was evaluated at the end of each week according to percent area covered in 5% increments
(§4) At the end of the three week incubation period, the samples were scored for percent inhibition regarding color intensity compared to the blank sample.
(§5) The SI is calculated based on F. C. Kull et.
(§6) SI value of <1 in the formula indicates a synergism of the blended biocides exists.
(§7) The minimal targeted inhibition was set at 75%, meaning a coupon with at least 75% algal growth inhibition was considered as a pass.

[1] = tested on: Stichococcus bacillaris SAG 379-1a / CCAP 379/1a; test: as above; assay type: cell-based; conditions: 3 weeks; for % inhibition: at the listed total conc, versus blank sample; for Total conc (lowest concentration passing, pass level ≧75% inhibition): total biocide in acrylic/silicone paint, dry film on filter paper
Description: as §1, §2, §3, §4, §5, §6, §7

CCNc1nc(NC(C)(C)C)nc(SC)n1 [Terbutryn, N^2-tert-butyl-N^4-ethyl-6-methylthio-1,3,5-triazine-2,4-diamine]
% inhibition (Chlorella sp. ATCC 7516): 90%
Total conc (lowest concentration passing, pass level ≧75% inhibition) (Chlorella sp. ATCC 7516): 500 ppm
% inhibition [1]: 80%
Total conc (lowest concentration passing, pass level ≧75% inhibition) [1]: 2000 ppm

Cc1ccc(NC(=O)N(C)C)cc1Cl [Chlorotoluron, N′-(3-chloro-4-methylphenyl)-N,N-dimethylurea]
% inhibition (Chlorella sp. ATCC 7516): 100%
Total conc (lowest concentration passing, pass level ≧75% inhibition) (Chlorella sp. ATCC 7516): 1000 ppm
% inhibition [1]: 90%
Total conc (lowest concentration passing, pass level ≧75% inhibition) [1]: 500 ppm

Reference: patent publication US20160050932A1, “SYNERGISTIC COMBINATION OF A CHLOROTOLURON COMPOUND AND TERBUTRYN FOR DRY FILM PROTECTION” (Rohm and Haas Company, priority 2013, published 2016)
